Measurements as given in paper PMC7735735, “Store-Operated Calcium Entry as a Therapeutic Target in Acute Pancreatitis: Discovery and Development of Drug-Like SOCE Inhibitors” (Journal of Medicinal Chemistry, 2020).
pIC50: −log10 of the molar value. “Also recorded” adds a separate entry of the source.

Tests used:
cerulein-induced AP = test system: cerulein-induced AP; design: method as in PMID 30347159; settings: rodents; cited from earlier work
SOCE [1] = test system: SOCE; design: method as in PMID 30347159; settings: cited from earlier work
[2] = Thermodynamic aqueous solubility and solubility in in vivo vehicles; format: physicochemical
Experimental: Thermodynamic aqueous solubility was determined as follows: about 3 mg of the tested compound was weighed and dissolved in 3 mL of deionized water. After vigorous mixing by vortex followed by sonication for 5 min, the resulting supersaturated solution was shaken horizontally overnight at 25 °C. After filtration over a syringe filter (pore 0.22 μm, regenerate cellulose membrane), 100 μL of DMSO was added to 1 mL of the filtered solution. The resulting solution was further diluted in water (typically 1:10) before LC–UV analysis. Aqueous solubility was calculated comparing the filtrate peak area to those of the tested compound DMSO solutions. Solubility in aqueous media was also checked in the following vehicles at the target concentration of 6 mg/mL: saline + 10% DMSO, saline + 10% DMSO + 20% PEG400, saline + 5% ethanol.

SOCE [3] = assay: SOCE inhibition in HEK cells by fluorescence microscopy (calcium imaging); format: cell-based, human; settings: HEK cells, Figure S1
Experimental: With these two compounds in hand, two click reactions were performed and compounds 9 and 18 (Table 1), displaying the same substructures as the reference compound Synta66, were obtained with a yield of 31 and 60%, respectively. 9 and 18 were tested for activity on SOCE in HEK cells, a human embryonic kidney (HEK) cell line, by fluorescence microscopy, as described elsewhere.[16] After 600 s, Ca^2+ was added and intracellular levels were measured.
Screening, dose–response experiments, and calcium imaging experiments were performed in HEK cells (ATCC, Rock, ville, MD, USA), as already reported elsewhere.[16]

[4] = In vitro metabolic stability in mouse liver microsomes; format: in vitro ADME; settings: MLMs, 50 μM substrate, 3 mM GSH trapping agent, HRMS
Experimental: Next, the in vitro metabolic stability of the five candidates (31, 34, 36, 38, and 40) was evaluated in mouse liver microsomes (MLMs) activated by NADPH by measuring the substrate residual after 1 h. For comparative purposes, Synta66 was incubated in the same conditions.
Phase I and II (glucuronidation) incubations were performed in MLMs (pooled male mouse CD-1, protein concentration: 20 mg/mL, purchased from Corning B.V. Life Sciences—Amsterdam, The Netherlands) using the procedure previously described[16] with the following modifications: 5 μM substrate concentration for the determination of the residual percentage and 50 μM for 34 metabolite characterization by HRMS; when metabolic activation was studied, 3 mM GSH trapping agent was added in the incubation mixture.

[5] = test system: cerulein-induced murine model of AP; assay: Cerulein-induced murine model of AP; format: in vivo, mouse; settings: 10 mg/kg i.p. 30 and 150 min after first cerulein injection; tissue collected at 5 h
Experimental: The PK profile of our candidate prompted us to investigate its efficacy in a cerulein-induced murine model of AP.[29]
(§1) All animal experiments observe the regulations in Italy (D.M. 116192) as well as the EU regulations (O.J. of E.C. L 358/1 12/18/1986). Compound 34 was injected i.v. at a dose of 7 mg/kg in C57BL/6 mice. Blood was collected after 5, 15, 30, 60, 120, 240, 360 min and 24 h. Aliquots of plasma samples were analyzed as previously reported.[16] AP was induced in mice by i.p. injections of cerulein, as already reported elsewhere.[16]

PK analysis in mice = format: in vivo; settings: C57BL/6, mouse, plasma, 7 mg/kg
Experimental: To further characterize the compound, a PK analysis was performed in mice. Briefly, mice were injected with 34 (i.v., 7 mg/kg, once) and serial blood sampling was performed.
as §1
In vivo PK evaluation of compound 34.
Table S6. PK parameters of single administration of compound 34 (e.v., 7 mg/kg, n=5)
Parameter Unit Value S.D.

HEK cells = assay: HEK cell viability after 72 h at 50 μM with or without uridine (involvement of DHODH); settings: up to 60 μM
[6] = intravenous, Table S6, single administration, e.v., n=5
[7] = iv, mice, i.v., once, read-out: half-life (t1/2) (converted)

| SMILES | efficacy in cerulein-induced AP (cerulein-induced AP) | pIC50 (SOCE [1]) | solubilization at 6 mg/mL in saline containing 10% DMSO + 20% PEG400 ([2]; nominal concentration 6 mg/mL, vehicle for in vivo administration) | increase in aqueous solubility of 34 compared to 36 ([2]; sodium salts) | solubility ([2]; thermodynamic, deionized water, 25 °C overnight, biphenyl triazoles as sodium salts, read-out: H2O solubility) | AUC compared to the reference compound Synta66 (SOCE [3]) | AUC, peak amplitude, and slope of the Ca2+-rise (SOCE [3]; selected compounds) | formation of glutathione (GSH) adducts [4] | histological scores of pancreatic tissue (H&E), inflammation and edema [5] | Cmax (PK analysis in mice; [6]) | Tmax (PK analysis in mice; [6]) | Cmax (PK analysis in mice; iv, mice, once) | clearance at 24 h (PK analysis in mice; iv, mice, i.v., once, read-out: clearance (Cl) (converted)) | half-life (PK analysis in mice; [7]) | half-life at 24 h (PK analysis in mice; [7]) | cytotoxicity in HEK cells up to 60 μM (HEK cells) |
| --- | --- | --- | --- | --- | --- | --- | --- | --- | --- | --- | --- | --- | --- | --- | --- | --- |
| CCCC(C)OC(=O)c1cnn(-c2ccc(-n3cc(-c4cccc(C(=O)O)c4)nn3)cc2)c1C(F)(F)F (stereo not shown) [Compound 3] | demonstrated efficacy; also recorded: significantly ameliorate cerulein-induced AP in rodents without signs of toxicity | 5.36 | – | – | – | – | – | – | – | – | – | – | – | – | – | – |
| COc1cccc(-c2ccc(-n3cc(-c4cccc(C(=O)O)c4)nn3)cc2)c1OC [Compound 34, 3-(1-(2′,3′-Dimethoxy-[1,1′-biphenyl]-4-yl)-1H-1,2,3-triazol-4-yl)benzoic Acid] | – | – | limpid solution | 80 fold | 1530 µg/mL | significantly reducing the AUC | induced a drop in the three parameters | did not highlight the formation of glutathione (GSH) adducts | significantly ameliorate the histological scores; also recorded: efficacy in a mouse model of cerulein-induced AP | 16800 ng/mL | 12 min | 16800 ng/mL | 8.33 mL/min/kg | 193 min | 192 min | no detectable cytotoxicity |
